Measured values reported in patent publication US6737383B1, “Herbicidal oxadiazolidines” (priority 1999, dated 2004).

Assays:
velvetleaf = assay: Test B pre/postemergence velvetleaf; type: in vivo, Abutilon theophrasti
In short: (§1)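 Herbicidal effect was estimated by eye on a ten-point control scale after plants spent twelve to sixteen days in a greenhouse following soil or foliar treatment. Foliar sprays targeted plants at one to four leaves; all doses were formulated in a non-phytotoxic solvent with surfactant.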

wild oat = assay: Test B pre/postemergence wild oat; type: in vivo, Avena fatua
In short: as §1

duck salad = assay: Test B flood test duck salad; type: in vivo, Heteranthera limosa
In short: (§2)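 Read-out is a visual response score from 0 (no effect) to 10 (complete control), assigned by comparison with untreated controls. Treatment was applied at the 2-leaf stage, and plants stayed in the greenhouse for twelve to sixteen days before scoring.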

blackgrass = assay: Test B pre/postemergence blackgrass; type: in vivo, Alopecurus myosuroides
In short: as §1

pigweed = assay: Test B pre/postemergence pigweed; type: in vivo, Amaranthus retroflexus
In short: as §1

morningglory = assay: Test B pre/postemergence morningglory; type: in vivo, Ipomoea hederacea
In short: as §1

rice = assay: Test B flood test rice; type: in vivo, Oryza sativa
In short: as §2

corn = assay: Test B pre/postemergence corn; type: in vivo, Zea mays
In short: as §1

giant foxtail = assay: Test B pre/postemergence giant foxtail; type: in vivo, Setaria faberii
In short: as §1

soybean = assay: Test B pre/postemergence soybean; type: in vivo, Glycine max
In short: as §1

wheat = assay: Test B pre/postemergence wheat; type: in vivo, Triticum aestivum
In short: as §1

crabgrass = assay: Test B pre/postemergence crabgrass; type: in vivo, Digitaria sanguinalis
In short: as §1

smallflower flatsedge = assay: Test B flood test smallflower flatsedge; type: in vivo, Cyperus difformis
In short: as §2

purple nutsedge = assay: Test B pre/postemergence purple nutsedge; type: in vivo, Cyperus rotundus
In short: as §1

bedstraw = assay: Test B pre/postemergence bedstraw; type: in vivo, Galium aparine
In short: as §1

surinam grass = assay: Test B pre/postemergence surinam grass; type: in vivo, Brachiaria decumbens
In short: as §1

[1] = Postemergence, Rate 62 g/ha, scale 0 to 10, 0 is no effect, 10 is complete control
[2] = Postemergence, Rate 250 g/ha, scale 0 to 10, 0 no effect, 10 complete control
[3] = Preemergence, Rate 62 g/ha, scale 0 to 10, 0 is no effect, 10 is complete control
[4] = Preemergence, Rate 125 g/ha, scale 0 to 10 (0 no effect, 10 complete control)
[5] = Preemergence, Rate 250 g/ha, scale of 0 to 10 where 0 is no effect and 10 is complete control
[6] = Preemergence, Rate 500 g/ha, scale 0 (no effect) to 10 (complete control)
[7] = Rate 125 g/ha, Postemergence, scale 0 to 10, 0 no effect, 10 complete control
[8] = Rate 62 g/ha, headed Pre-emergence (flood test species), scale 0 to 10 (0 no effect, 10 complete control)
[9] = Rate 125 g/ha, Postemergence section (flood test species), scale 0 to 10, 0 no effect, 10 complete control
[10] = Rate 125 g/ha, Pre-emergence, flood test species, scale 0 to 10 where 0 is no effect and 10 is complete control
[11] = Rate 250 g/ha, headed Pre-emergence (flood test species), scale 0 to 10 (0 no effect, 10 complete control)
[12] = Rate 500 g/ha, Postemergence section of Table B, 0 to 10 scale (0 no effect, 10 complete control)
[13] = Rate 500 g/ha, headed Pre-emergence (flood test species), scale 0 to 10 (0 no effect, 10 complete control)
[14] = Rate 1000 g/ha, Pre-emergence (as headed), scale 0 to 10
[15] = Rate 2000 g/ha, Pre-emergence (as headed), scale 0 to 10
[16] = flood test, listed under Postemergence, Rate 250 g/ha, scale 0 to 10, 0 no effect, 10 complete control
[17] = Rate 500 g/ha, Postemergence, 0 to 10 scale (0 no effect, 10 complete control)

Cc1cccc(C)c1-n1c(=O)on(C(=O)N(c2ccc(F)cc2)C(C)C)c1=O [Compound 18]
Velvetleaf plant response rating (velvetleaf; [1]): 0
Velvetleaf plant response rating (velvetleaf; [2]): 1
Plant response rating, Velvetleaf (velvetleaf; [3]): 0
Plant response rating, Velvetleaf (velvetleaf; [4]): 0
Plant response rating, Velvetleaf (velvetleaf; [5]): 0
Velvetleaf plant response rating (velvetleaf; [6]): 0
Velvetleaf plant response rating (velvetleaf; [7]): 0
Wild oats plant response rating (wild oat; [1]): 0
Wild oats plant response rating (wild oat; [2]): 0
Plant response rating, Wild oats (wild oat; [4]): 0
Plant response rating, Wild oats (wild oat; [5]): 0
Wild oats plant response rating (wild oat; [6]): 5
Wild oats plant response rating (wild oat; [7]): 0
Ducksalad plant response rating (duck salad; [1]): 0
Ducksalad plant response rating (duck salad; [8]): 0
Ducksalad plant response rating (duck salad; [9]): 7
Ducksalad plant response rating (duck salad; [10]): 0
Ducksalad plant response rating (duck salad; [11]): 0
Ducksalad plant response rating (duck salad; [12]): 7
Plant response rating, Ducksalad (duck salad; [13]): 1
Ducksalad plant response rating (duck salad; [14]): 0
Ducksalad plant response rating (duck salad; [15]): 0
Ducksalad plant response rating (duck salad; [16]): 7
Blackgrass plant response rating (blackgrass; [1]): 0
Blackgrass plant response rating (blackgrass; [2]): 3
Plant response rating, Blackgrass (blackgrass; [3]): 2
Plant response rating, Blackgrass (blackgrass; [4]): 0
Plant response rating, Blackgrass (blackgrass; [5]): 5
Blackgrass plant response rating (blackgrass; [6]): 5
Blackgrass plant response rating (blackgrass; [7]): 0
Blackgrass plant response rating (blackgrass; [17]): 3
Redroot pigweed plant response rating (pigweed; [1]): 1
Redroot pigweed plant response rating (pigweed; [2]): 1
Plant response rating, Redroot pigweed (pigweed; [3]): 4
Plant response rating, Redroot pigweed (pigweed; [4]): 7
Plant response rating, Redroot pigweed (pigweed; [5]): 8
Redroot pigweed plant response rating (pigweed; [6]): 9
Redroot pigweed plant response rating (pigweed; [7]): 1
Redroot pigweed plant response rating (pigweed; [17]): 6
Morningglory plant response rating (morningglory; [1]): 1
Morningglory plant response rating (morningglory; [2]): 2
Plant response rating, Morningglory (morningglory; [3]): 0
Plant response rating, Morningglory (morningglory; [4]): 0
Plant response rating, Morningglory (morningglory; [5]): 0
Morningglory plant response rating (morningglory; [6]): 2
Morningglory plant response rating (morningglory; [7]): 1
Morningglory plant response rating (morningglory; [17]): 3
Rice plant response rating (rice; [1]): 0
Rice plant response rating (rice; [8]): 0
Rice plant response rating (rice; [9]): 0
Rice plant response rating (rice; [10]): 0
Rice plant response rating (rice; [11]): 0
Rice plant response rating (rice; [12]): 5
Plant response rating, Rice (rice; [13]): 0
Rice plant response rating (rice; [14]): 0
Rice plant response rating (rice; [15]): 0
Rice plant response rating (rice; [16]): 2
Corn plant response rating (corn; [1]): 0
Corn plant response rating (corn; [2]): 0
Plant response rating, Corn (corn; [3]): 0
Plant response rating, Corn (corn; [4]): 0
Plant response rating, Corn (corn; [5]): 0
Corn plant response rating (corn; [6]): 0
Corn plant response rating (corn; [7]): 0
Corn plant response rating (corn; [17]): 0
Giant foxtail plant response rating (giant foxtail; [1]): 0
Giant foxtail plant response rating (giant foxtail; [2]): 1
Plant response rating, Giant foxtail (giant foxtail; [3]): 2
Plant response rating, Giant foxtail (giant foxtail; [4]): 5
Plant response rating, Giant foxtail (giant foxtail; [5]): 8
Giant foxtail plant response rating (giant foxtail; [6]): 9
Giant foxtail plant response rating (giant foxtail; [7]): 1
Giant foxtail plant response rating (giant foxtail; [17]): 3
Soybean plant response rating (soybean; [1]): 2
Soybean plant response rating (soybean; [2]): 3
Plant response rating, Soybean (soybean; [3]): 0
Plant response rating, Soybean (soybean; [4]): 0
Plant response rating, Soybean (soybean; [5]): 0
Soybean plant response rating (soybean; [6]): 0
Soybean plant response rating (soybean; [7]): 3
Wheat plant response rating (wheat; [1]): 0
Wheat plant response rating (wheat; [2]): 0
Plant response rating, Wheat (wheat; [3]): 0
Plant response rating, Wheat (wheat; [4]): 0
Plant response rating, Wheat (wheat; [5]): 0
Wheat plant response rating (wheat; [6]): 0
Wheat plant response rating (wheat; [7]): 0
Crabgrass plant response rating (crabgrass; [1]): 0
Crabgrass plant response rating (crabgrass; [2]): 7
Plant response rating, Crabgrass (crabgrass; [3]): 6
Plant response rating, Crabgrass (crabgrass; [4]): 5
Plant response rating, Crabgrass (crabgrass; [5]): 8
Crabgrass plant response rating (crabgrass; [6]): 10
Crabgrass plant response rating (crabgrass; [7]): 3
Crabgrass plant response rating (crabgrass; [17]): 9
S. Flatsedge plant response rating (smallflower flatsedge; [1]): 0
S. Flatsedge plant response rating (smallflower flatsedge; Pre-emergence, Rate 1000 g/ha, scale 0 to 10 (0 no effect, 10 complete control)): 0
S. Flatsedge plant response rating (smallflower flatsedge; [8]): 0
S. Flatsedge plant response rating (smallflower flatsedge; [9]): 0
S. Flatsedge plant response rating (smallflower flatsedge; [10]): 0
S. Flatsedge plant response rating (smallflower flatsedge; [11]): 0
Plant response rating, S. Flatsedge (smallflower flatsedge; [13]): 6
S. Flatsedge plant response rating (smallflower flatsedge; [15]): 0
S. Flatsedge plant response rating (smallflower flatsedge; [16]): 6
Nutsedge plant response rating (purple nutsedge; [1]): 0
Nutsedge plant response rating (purple nutsedge; [2]): 0
Plant response rating, Nutsedge (purple nutsedge; [3]): 0
Plant response rating, Nutsedge (purple nutsedge; [4]): 0
Plant response rating, Nutsedge (purple nutsedge; [5]): 0
Nutsedge plant response rating (purple nutsedge; [6]): 0
Nutsedge plant response rating (purple nutsedge; [7]): 0
Nutsedge plant response rating (purple nutsedge; [17]): 0
Bedstraw plant response rating (bedstraw; [1]): 2
Bedstraw plant response rating (bedstraw; [2]): 7
Plant response rating, Bedstraw (bedstraw; [3]): 0
Plant response rating, Bedstraw (bedstraw; [4]): 0
Plant response rating, Bedstraw (bedstraw; [5]): 0
Bedstraw plant response rating (bedstraw; [6]): 3
Bedstraw plant response rating (bedstraw; [7]): 7
Bedstraw plant response rating (bedstraw; [17]): 9
B. signalgrass plant response rating (surinam grass; [1]): 0
B. signalgrass plant response rating (surinam grass; [2]): 0
Plant response rating, B. signalgrass (surinam grass; [3]): 0
Plant response rating, B. signalgrass (surinam grass; [4]): 0
Plant response rating, B. signalgrass (surinam grass; [5]): 7
B. signalgrass plant response rating (surinam grass; [6]): 8
B. signalgrass plant response rating (surinam grass; [7]): 0
B. signalgrass plant response rating (surinam grass; [17]): 2
